Measured values taken from PubChem BioAssay (NCI).
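Dose response: 5 concentrations. Exposure: 48 h. Format: 96-well plates. Endpoint: linear interpolation; highest concentration if not reached. GI50: concentration for 50% inhibition of growth. TGI: total growth inhibition.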

Columns and labels:
Assay in all cases: growth of human tumour cells (NCI), 48 h
HCT-116 colon = test system: HCT-116 colon
HL-60(TB) leukemia = test system: HL-60(TB) leukemia
HS 578T breast = test system: HS 578T breast
IGROV1 ovarian = test system: IGROV1 ovarian
LOX IMVI melanoma = test system: LOX IMVI melanoma
M14 melanoma = test system: M14 melanoma
MDA-MB-231 breast = test system: MDA-MB-231 breast
UACC-257 melanoma = test system: UACC-257 melanoma

SMILES | GI50 (HCT-116 colon) [µM] | TGI (HCT-116 colon) [µM] | GI50 (HL-60(TB) leukemia) [µM] | TGI (HL-60(TB) leukemia) [µM] | GI50 (HS 578T breast) [µM] | TGI (HS 578T breast) [µM] | GI50 (IGROV1 ovarian) [µM] | TGI (IGROV1 ovarian) [µM] | GI50 (LOX IMVI melanoma) [µM] | TGI (LOX IMVI melanoma) [µM] | GI50 (M14 melanoma) [µM] | TGI (M14 melanoma) [µM] | GI50 (MDA-MB-231 breast) [µM] | TGI (MDA-MB-231 breast) [µM] | GI50 (UACC-257 melanoma) [µM] | TGI (UACC-257 melanoma) [µM]
Oc1c(C(c2ccc(F)cc2)N2CCCCC2)ccc2cncnc12 (stereo not given) | 0.364 | > 100 | 1.14 | 6.22 | 0.432 | > 100 | 0.532 | 21.7 | 0.432 | > 100 | 0.746 | > 75.2 | 1.5 | > 100 | 0.711 | 12.2
CC1Cc2c(Cl)ncnc2N(C)c2ccccc21 (stereo not given) | 3.96 | 80.3 | 3.39 | 15 | 1.36 | 47.3 | 3.78 | > 100 | 1.71 | 3.43 | 2.77 | 17.3 | 2.39 | 5.05 | 3.76 | 21
C[C@]12CCC(=O)C=C1C[C@@H](O)[C@@H]1[C@@H]2CC[C@@]2(C)[C@H]1CC[C@]2(C)O | – | > 100 | – | > 100 | – | > 100 | – | > 100 | – | > 100 | – | > 100 | – | > 100 | – | > 100
O=C(Nc1cccc([N+](=O)[O-])c1)c1cccc(C(=O)Nc2cccc([N+](=O)[O-])c2)c1 | 41.9 | > 100 | > 100 | > 100 | 7.5 | > 30.7 | 33.9 | > 100 | > 100 | > 100 | > 100 | > 100 | 12.1 | > 100 | > 100 | > 100
CC12CCC(C1)C(C)(C)C2OC(=O)c1ccccc1N (stereo not given) | – | 26.6 | – | 28.6 | – | 31.5 | – | 40.5 | – | 33.8 | – | 31.6 | – | 30.2 | – | 29
CC1(C)OCC2OC(n3cnc4c(N)nc(Cl)nc43)C(OS(C)(=O)=O)C2O1 (stereo not given) | – | > 100 | – | > 100 | – | > 100 | – | > 100 | – | > 100 | – | > 100 | – | > 100 | – | > 100
O=C1C=CC2C3C(=O)N(c4ccccc4)C(=O)C3C1N2Cc1ccccc1 (stereo not given) | 1.56 | 3.27 | 1.17 | 8.79 | – | 13.9 | 4.81 | 12.3 | 1.61 | 3.13 | 2.6 | 7.12 | 5.44 | 20.1 | 3.22 | 8.67
COC(=O)CC[C@@H](C)[C@H]1CC[C@H]2[C@@H]3CC[C@@H]4C[C@H](O)CC[C@]4(C)[C@H]3CC[C@]12C | – | 31.8 | – | 35.5 | – | 55.8 | – | 35.4 | – | 35.7 | – | 35.8 | – | 34.2 | – | 29.5
COc1ccc2c3ccnc(C(F)(F)F)c3n(CCCCN)c2c1 | 3.84 | 13.4 | 4.78 | 20.1 | 4.09 | 22.8 | 3.39 | 14.5 | 4.38 | 17 | 4.93 | 17.3 | 8.12 | 21.7 | 3.02 | 8.41
Nc1nc(-c2ccc3c(c2)/C(=C\c2cc(Br)c(O)c(Br)c2)C(=O)N3)cs1 | 12.9 | > 25 | 8.91 | > 22.6 | 9.98 | > 25 | > 25 | > 25 | 7.84 | > 25 | 5.02 | 11.8 | 17.3 | > 25 | 5.57 | 14.4
Nc1nc2cc(Cl)ccc2n1N | – | > 100 | – | > 100 | – | > 100 | – | > 100 | – | > 100 | – | > 100 | – | > 100 | – | > 100
COc1cc2c(cc1OCC(=O)Nc1ccc(Cl)cc1C(=O)c1ccccc1Cl)N=CC1CCCN1C2=O (stereo not given) | 7.18 | 20.5 | 16.3 | 56.2 | 7.17 | 24 | 3.9 | 16.4 | 12.1 | 26.2 | 14.1 | 27.9 | 10.7 | 25.7 | 16.6 | 30.2
CCCCCCCCN(CCCCCCCC)CC(O)c1cc(-c2ccccc2)nc2ccc(OC)cc12 (stereo not given) | 15.7 | 68.4 | 18 | 52.2 | > 100 | > 100 | > 100 | > 100 | 12.6 | 34.7 | 20.3 | 68.5 | 11.1 | > 100 | > 100 | > 100
Cc1nnc(N/N=C/c2ccc([N+](=O)[O-])o2)[nH]c1=O | 0.57 | > 100 | 2.5 | > 100 | 0.425 | 40.8 | 3.82 | > 100 | 0.659 | > 100 | 2.89 | > 100 | 1.26 | > 24.5 | 0.0512 | 5.26
CCN(CC)CCOc1nc2ccccc2c2c1-c1ccc(OC)cc1C2=O | 0.331 | 1.55 | 0.395 | 1.85 | 1.19 | 5.78 | 0.384 | 2.63 | 0.432 | 1.81 | 1.36 | 3 | 1.4 | 6.22 | 1.6 | 3.38
NC1CC(=O)c2c(-c3cccs3)sc(-c3cccs3)c21 (stereo not given) | 15.3 | 29.9 | 20.5 | 61.1 | 36.7 | > 100 | 27.3 | > 100 | 12.7 | 29 | 37.3 | > 100 | 27.9 | > 100 | 52.3 | > 100
